In BindingDB's records for PubMed 18089823 (Harvard Medical School):

Biological target: 3-phosphoinositide-dependent protein kinase 1 (Homo sapiens) (UniProt O15530)
Assay: Inhibition of recombinant PDK1 (unknown origin)

COc1cc2ncnc(Nc3ccc(F)c(Cl)c3)c2cc1NC(=O)/C=C/CN1CCCCC1 [DACOMITINIB]
IC50: > 10 µM
